Data: patent US20250186467A1, “METHODS OF TREATING MEDICAL CONDITIONS USING STAMPIDINE OR A RELATED COMPOUND” (ROME Therapeutics, Inc., priority 2022, published 2025)

Tests used:
[1] = system: THP1-Dual KO-TREX1 cells; test: CellTiter-Glo cell viability in THP1 TREX1 KO cells; type: cell-based; conditions: highest dose, with 1 μM 5-aza-2′-deoxycytidine, five days
Experimental: THP1 Dual TREX1 KO cells were purchased from Invivogen. The THP1-Dual™ KO-TREX1 cells were cultured in RPMI 1640, 10% heat-inactivated fetal bovine serum, 25 mM HEPES, 10 μg/mL Blasticidin, and 100 μg/mL Zeocin. THP1-Dual™ KO-TREX1 cells were treated with a dose titration of test compound in the presence of 1 μM 5-aza-2′-deoxycytidine (Sigma, cat #189825). Type 1 Interferon and cell viability were assessed after five days of treatment.
Stock solution of test compound was prepared in DMSO followed by a three-fold dilution in DMSO. Additional 50× dilution was prepared in cell culture media for each dilution. 10 μL of diluted test compound was then added to a 384-well plate.
THP1-Dual™ KO-TREX1 cells were treated with 1 μM 5-aza-2′-deoxycytidine. THP1-Dual™ KO-TREX1 cells (50 μL) were added to each well of the 384-well plate containing test compound titration at 10,000 cells/well. Cells were incubated at 37° C., 5% CO2 in a humidified incubator for five days. […] Luminescence was detected on a plate reader according to manufacturer's instructions. […]
The remaining cells were assessed for cell viability by adding 30 μl of CellTiter-Glo (Promega, 09683) solution to each well, and placed on a shaker for 10 minutes at room temperature. Luminescence was detected on a plate reader, according to manufacturer's instructions. […]

[2] = system: interferon-stimulated gene (ISG) response; test: In vivo decitabine challenge model; parameters: species or system C57BL/6 mice; conditions: stampidine 3, 15, 75 mg/kg i.p. daily with decitabine 5 mg/kg i.p., Day 0 to Day 4; spleen, liver, terminal colon
Experimental: Twenty 9-11 week old C57BL/6 mice were acclimated to the lab for at least 5 days. Stampidine was prepared in a 20% HP-b-CD in water solution for i.p. administration. Decitabine (Sigma) was dissolved in sterile PBS (pH 7.4) and dosed within 30 minutes of preparation of the solution. Doses of both stampidine and decitabine were administered i.p. once a day, every day from Day 0 to Day 4.
On Day 0, mice were split into four groups of five mice and given their first dose of decitabine (i.p., 5 mg/kg) and stampidine. Dosing groups were:
Decitabine and stampidine were administered daily from Day 0 to Day 4. All mice were euthanized 1 hour after the last dose administration on Day 4. Spleens, liver, and terminal colon were collected, along with plasma from each animal. The fold changes in interferon-stimulated gene (ISG) expression were calculated by first normalizing to GAPDH gene using the Delta CT method. The CT (gene of interest)−CT (reference gene) was calculated to generate a delta CT for all samples. The fold change was then calculated by taking the […](Delta CT(control)−Delta CT (experimental). The control in this example was the PBS control animal group. The Taqman duplex assay was used to determine levels of GAPDH v. IFIT2.

COC(=O)[C@H](C)N[P@](=O)(OC[C@@H]1C=C[C@H](n2cc(C)c(=O)[nH]c2=O)O1)Oc1ccc(Br)cc1 [Stampidine, methyl ((S)-(4-bromophenoxy)(((2S,5R)-5-(5-methyl-2,4-dioxo-3,4-dihydropyrimidin-1(2H)-yl)-2,5-dihydrofuran-2-yl)methoxy)phosphoryl)-L-alaninate]
reduction in cell viability [1]: ~15%
change in ISG response [2]: showed the change in ISG response which was most prominent in the spleen tissue
